Test results reported in US9932300B2, “N,N′-diarylurea compounds and N,N′-diarylthiourea compounds as inhibitors of translation initiation” (President and Fellows of Harvard College, priority 2009, dated 2018).

Test system: eIF2-GTP-Met-tRNAi ternary complex
Assay: Ternary complex assay (dual luciferase, firefly/renilla ratio) in stable KLN-tTA/pBISA-DL(ATF-4) cells; HTS and hit confirmation
Format: cell-based, mouse
Parameters: Activity 10 uM / Activity 2.5 uM / Activity 5 uM: unit not given here
Conditions: confirmed hits of the screen (Table 5); for Activity 5 uM: compound at 5 uM; for Activity 10 uM: compound at 10 uM; for Activity 2.5 uM: compound at 2.5 uM

SMILES | Activity 5 uM | Activity 10 uM | Activity 2.5 uM
c1ccc(-c2cc3ccccc3[nH]2)nc1 [Compound 112668] | 2.854 | 3.3905 | 
CC(=O)Oc1cccc2cc3cc(C)cc(OC(C)=O)c3c(OC(C)=O)c12 [Compound 112921] |  | 242.82 | 97.42
c1ccc2c(c1)cnc1cc3c(cc12)ncc1ccccc13 [Compound 113085] |  | 5.05 | 3.18
CCOC(=O)c1ccc(Nc2nc3ccccc3o2)cc1 [Compound 114995] |  | 3.43 | 2.69
c1ccc(N=Nc2ccc[nH]2)cc1 [Compound 115157] | 7.1 | 40.7 | 
Cc1ccc([P+](Cc2ccccc2)(c2ccccc2)c2ccc(C)cc2)cc1 [Compound 116685] | 1.9 | 4.5 | 
CN1c2ccc(Br)c[c]2[Sn]([CH3])([CH3])[c]2cc(Br)ccc21 [Compound 118026] | 37.512 | 40.338 | 
CN1c2cccc[c]2[Sn]([CH3])([CH3])[c]2ccccc21 [Compound 118028] |  | 4.1 | 
CSC1=CC(=O)C=C(C)C1=O [Compound 119026] | 4 | 12.6 | 
CCN1/C(=C\c2ccc3cc(C)ccc3[n+]2CC)[Se]c2ccccc21.[I-] [Compound 119675] |  | 8.78 | 5.52
Oc1ccccc1/C=N\N=C\c1ccco1 [Compound 119688] | 2.45 | 3.9 | 
CC(C)c1ccc(/C=C2\C=Cc3ccccc32)cc1 [Compound 120440] | 2.3 | 3.8 | 
CC(=O)Oc1ccccc1/C=C/NC(=O)OC(C)(C)C [Compound 122241] | 3.2 | 5 | 
CCCCCCCCCCCCCCCCCC[n+]1cccc(C(=O)c2ccccc2)c1.[Br-] [Compound 122844] |  | 13.27 | 1.77
CCCCCCCC(=O)[O][Hg][c]1ccccc1 [Compound 122854] |  | 3.2 | 
CC(C)=CCC1=CC(=O)c2ccccc2C1=O [Compound 123507] | 2.41 | 10.5 | 
CN(C)CC1CC2C3CC=C4CC(O)CCC4(C)C3CCC2(C)C1=O (stereo not drawn) [Compound 124738] |  | 3.7 | 0.79
O=C(CCl)Nc1ccc(O)c2ccccc12 [Compound 125369] |  | 9.98 | 1.08
CCC[CH2][Sn]([CH2]CCC)([CH2]CCC)[CH2]C(C)(C)c1ccccc1 [Compound 126650] |  | 8.04 | 0.64
CCOC(=N)c1cn(C2OC(CO)C(O)C2O)c2nc[nH]c(=O)c12.Cl (stereo not drawn) [Compound 128665] |  | 3.18 | 17.83
O=[N+]([O-])c1cc(Cl)ccc1NC(Nc1ccc(Cl)cc1[N+](=O)[O-])C(Cl)(Cl)Cl [Compound 130140] |  | 19.67 | 0.74
CC(=O)Oc1ccc(N(CCCl)CCCl)cc1OC(C)=O [Compound 130216] |  | 4.77 | 0.51
CCCCCc1[nH]nc(C(=O)OC)c1N=NN1CCOCC1 [Compound 131237] |  | 3.3 | 0.87
c1ccc(-c2ccc3c4ccccc4ccn23)cc1 [Compound 131464] |  | 3.99 | 3.63
CC[Si](CC)(CC)[Si](c1ccccc1)(c1ccccc1)c1ccccc1 [Compound 131584] |  | 7.95 | 0.89
N=C(N)c1cn(C2OC(CO)C(O)C2O)c2ncnc(N)c12 (stereo not drawn) [Compound 131663] |  | 8.18 | 7
COc1ccc(Cc2cncc3c(O)c(OC)ccc23)cc1O [Compound 131747] |  | 3.25 | 2.54
CCCCCCCCCCCCOC(=O)c1cc(O)c(O)c(O)c1 [Compound 133463] | 8.8 | 4.63 | 

SMILES | Activity 5 uM | Activity 10 uM | Activity 2.5 uM
Nc1c(Br)cc2c([nH]c(=O)c3cc(Cl)ccc32)c1Br [Compound 134404] |  | 12.72 | 5.44
Cl.Clc1ccc(C2NC(c3ccc(Cl)cc3)NC(c3ccc(Cl)cc3)N2)cc1 (stereo not drawn) [Compound 135155] |  | 7.19 | 0.94
O=S(=O)(c1ccccc1)N1CC2CC(Br)C(Br)CC21 (stereo not drawn) [Compound 135331] | 15.388 | 31.606 | 
C(C[P+](c1ccccc1)(c1ccccc1)c1ccccc1)=C(c1ccccc1)c1ccccc1 [Compound 135741] | 8.605 | 7.226 | 
CN1N=C([P+](c2ccccc2)(c2ccccc2)c2ccccc2)CC1(c1ccccc1)c1ccccc1.[I-] [Compound 135744] | 7 | 21.9 | 
CCOC(=O)CN1N=C([P+](c2ccccc2)(c2ccccc2)c2ccccc2)CC1(c1ccccc1)c1ccccc1.[Br-] [Compound 135745] | 3.2 | 6.5 | 
O=[N+]([O-])c1ccccc1N/N=C\c1c[nH]c2ccccc12 [Compound 135854] |  | 5.75 | 3.56
COc1cccc2c1n([O-])c1cccc(=O)c-1[n+]2[O-].COc1cccc2c1n([O-])c1cccc(=O)c-1[n+]2[O-].[Cu+2] [Compound 136768] | 4.668 | 3.271 | 
CCCN(CCC)N=Nc1c(-c2ccccc2)n[nH]c1-c1ccccc1 [Compound 136886] | 2.5 | 28.5 | 
CCCCN(C)N=Nc1c(-c2ccccc2)n[nH]c1-c1ccccc1 [Compound 136889] | 3.9 | 16.7 | 
CC(=O)Oc1c2c(c(CC=C(C)C)c3c1C(=O)C1=CC4CC5C(C)(C)OC(C/C=C(/C)C(=O)O)(C4=O)C15O3)OC(C)(CCC=C(C)C)C=C2 (stereo not drawn) [Compound 139221] | 2.1 | 9 | 
CCCCCCCCCCCCCCNC(=O)C[N+](C)(C)Cc1ccccc1.[Cl-] [Compound 141112] |  | 3.76 | 0.98
N#Cc1ncc(Cl)cc1[N+](=O)[O-] [Compound 141226] |  | 3.5 | 1.05
O=C(Cc1ccccc1)c1ccc2c3c(ccc([N+](=O)[O-])c13)CC2 [Compound 142606] |  | 34.1 | 16.57
CO[C@H]1/C=C/O[C@@]2(C)Oc3c(C)c(O)c4c(O)c(c(/C=N/Nc5ccc([N+](=O)[O-])cc5[N+](=O)[O-])c(O)c4c3C2=O)NC(=O)/C(C)=C\C=C\[C@H](C)[C@H](O)[C@@H](C)[C@@H](O)[C@@H](C)[C@H](OC(C)=O)[C@@H]1C [Compound 144126] | 1.3 | 7.3 | 
Cl.S=C(N/N=C/c1ccccn1)N/N=C/c1ccccn1 [Compound 146007] | 1.8 | 3.4 | 
CC[N+](CC)=c1ccc2nc3c(cc(N)c4ccccc43)oc-2c1.[Cl-] [Compound 146184] |  |  | 3.13
c1ccc(N/N=C(/CC/C(=N\Nc2ccccc2)c2ccccc2)c2ccccc2)cc1 [Compound 146216] |  | 5.04 | 2.73
CC(C)(C)C[CH2][Hg][Cl] [Compound 146249] |  |  | 3.04
CCCCCCCCCCCc1n(Cc2ccccc2)c2ccccc2[n+]1C.[Br-] [Compound 148342] | 14.51 | 19.7555 | 
CCCCSC1=CC(=O)c2ccccc2C1=O [Compound 149109] |  |  | 18.18
COc1cccc2c1C(=O)c1c(O)c3c(c(O)c1C2=O)C[C@@](O)(C(=O)COC(C)=O)C[C@@H]3OC1CC(N)C(O)C(C)O1.Cl (stereo partly drawn) [Compound 149581] | 3.5 | 4.3 | 
OC(Br)C1C(c2ccccc2)N1C1CCCCC1 (stereo not drawn) [Compound 150279] |  | 3.9 | 0.62
Br.O=C(/C(=C\c1ccccc1)CN1CCOCC1)c1ccc(Br)cc1 [Compound 150311] | 36.67 | 39.7 | 
O=C(/C=C(\CN1CCCCC1)c1ccccc1)c1ccccc1 [Compound 150320] | 19.9 | 16.4 | 
Cc1ccc2c(c1)SCc1c-2[nH]c2ccccc12 [Compound 150787] |  | 5.6 | 2.94
CC(N)c1ccc(OCCOc2ccc(C(C)(C)CC(C)(C)C)cc2)cc1 (stereo not drawn) [Compound 151117] |  | 12.07 | 0.85
